Data published in the supplement of paper PMC10307832.

How the values were obtained:
Experiment in all cases: relative viability (nuclei count vs DMSO), 5 days (fraction); higher = more cells survive
RO-3306 + Alpelisib = compound: C1=CC2=C(C=CC(=C2)C=C3C(=O)NC(=NCC4=CC=CS4)S3)N=C1 [RO-3306] + Cc1nc(NC(=O)N2CCC[C@H]2C(N)=O)sc1-c1ccnc(C(C)(C)C(F)(F)F)c1 [Alpelisib] (partner 2 µM)
Outline: (§1)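 Lung cancer cell lines in 1536-well plates were dosed by pin tool the day after seeding, either with one drug alone or with a fixed anchor-drug dose plus five library-drug doses (not always all listed) in √10 steps. After 5 days, cells were fixed and their nuclei stained in one step (final 0.05% Triton X-100, 1% formaldehyde, 1 ug/ml Hoechst), then counted on 4× images. Relative viability is the nuclei count in treated wells divided by that in vehicle wells. Values are medians of duplicate plates.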

RO-3306 + Phenformin = compound: C1=CC2=C(C=CC(=C2)C=C3C(=O)NC(=NCC4=CC=CS4)S3)N=C1 [RO-3306] + N=C(N)NC(=N)NCCc1ccccc1 [Phenformin] (partner 250 µM)
Outline: as §1

[1] = compound: O=S(=O)(c1ccccc1)N(CC(F)(F)F)c1ccc(C(O)(C(F)(F)F)C(F)(F)F)cc1 + CC(=O)Nc1cccc(-n2c(=O)n(C3CC3)c(=O)c3c(Nc4ccc(I)cc4F)n(C)c(=O)c(C)c32)c1 [Trametinib] (partner 0.02 µM)
Outline: as §1

[2] = compound: O=S(=O)(c1ccccc1)N(CC(F)(F)F)c1ccc(C(O)(C(F)(F)F)C(F)(F)F)cc1 + Cc1cc(Nc2cc(N3CCN(C)CC3)nc(Sc3ccc(NC(=O)C4CC4)cc3)n2)n[nH]1 [Tozasertib] (partner 0.1 µM)
Outline: as §1

[3] = compound: O=S(=O)(c1ccccc1)N(CC(F)(F)F)c1ccc(C(O)(C(F)(F)F)C(F)(F)F)cc1 + Nc1nc2[nH]cc(CCc3ccc(C(=O)N[C@@H](CCC(=O)O)C(=O)O)cc3)c2c(=O)[nH]1 [Pemetrexed] (partner 0.2 µM)
Outline: as §1

Row | Cell Line | relative viability (RO-3306 + Alpelisib; first compound 0.01 µM) | relative viability (RO-3306 + Alpelisib; first compound 0.03162 µM) | relative viability (RO-3306 + Alpelisib; first compound 0.1 µM) | relative viability (RO-3306 + Alpelisib; first compound 0.3162 µM) | relative viability (RO-3306 + Alpelisib; first compound 1 µM) | relative viability (RO-3306 + Phenformin; first compound 0.01 µM) | relative viability (RO-3306 + Phenformin; first compound 0.03162 µM) | relative viability (RO-3306 + Phenformin; first compound 0.1 µM) | relative viability (RO-3306 + Phenformin; first compound 0.3162 µM) | relative viability (RO-3306 + Phenformin; first compound 1 µM) | relative viability ([1]; first compound 0.8 µM) | relative viability ([1]; first compound 2.53 µM) | relative viability ([1]; first compound 8 µM) | relative viability ([2]; first compound 0.8 µM) | relative viability ([2]; first compound 2.53 µM) | relative viability ([2]; first compound 8 µM) | relative viability ([3]; first compound 0.8 µM) | relative viability ([3]; first compound 2.53 µM) | relative viability ([3]; first compound 8 µM)
1 | 201T | 1.03 | 1.01 | 1.05 | 0.973 | 1.04 | 0.499 | 0.355 | 0.46 | 0.414 | 0.369 | 0.712 | 0.666 | 0.681 | 0.927 | 0.854 | 0.863 | 0.331 | 0.343 | 0.401
2 | A549 | 0.744 | – | 0.72 | 0.756 | 0.715 | 0.225 | 0.802 | – | 0.124 | 1.12 | – | – | – | – | – | – | – | – | –
3 | A-427 | 1.13 | 0.575 | 1 | 1.06 | 1.02 | 0.339 | 0.241 | 0.312 | 0.295 | 0.243 | 0.722 | 0.645 | 0.682 | 0.186 | 0.216 | 0.298 | 0.939 | 0.937 | 1.05
4 | ABC-1 | 1.07 | 1.07 | 1.22 | 0.939 | 1.22 | 0.238 | 0.222 | 0.268 | 0.27 | 0.232 | – | – | – | 0.172 | 0.19 | 0.202 | – | – | –
5 | BEN | 1.3 | 0.738 | 0.926 | 1.09 | 1.08 | 0.298 | 0.266 | 0.26 | 0.252 | 0.263 | 1.05 | 0.888 | 1.02 | 0.615 | 0.549 | 0.508 | 0.702 | 0.742 | 0.972
6 | CAL-12T | 1.38 | 1.26 | 1.17 | 1.19 | 1.37 | 0.56 | 0.445 | 0.511 | 0.597 | 0.674 | 0.247 | 0.265 | 0.238 | 0.299 | 0.331 | 0.242 | 1.29 | 1.06 | 0.982
7 | COR-L23 | 0.898 | – | 0.866 | 0.631 | 0.75 | 0.475 | 0.391 | 0.455 | 0.409 | 0.435 | 0.657 | 0.583 | 0.539 | 0.159 | 0.152 | 0.164 | 0.2 | 0.193 | 0.208
8 | COR-L 105 | 1.36 | 0.835 | 1.06 | 1.09 | 0.998 | 0.499 | 0.386 | 0.417 | 0.517 | 0.429 | 0.39 | 0.424 | 0.382 | 0.337 | 0.342 | 0.435 | 1.34 | 1.06 | 0.988
9 | Calu-6 | 1.21 | 0.91 | 1.04 | 0.931 | 0.982 | – | – | – | – | – | – | – | – | – | – | – | – | – | –
10 | ChaGo-K-1 | – | – | – | – | – | 0.579 | 0.404 | 0.447 | 0.443 | 0.337 | 0.998 | 0.862 | 0.884 | 0.225 | 0.209 | 0.235 | 0.263 | 0.264 | 0.272
11 | EBC-1 | 0.895 | 0.727 | 1.04 | 0.965 | 0.904 | – | – | – | – | – | – | – | – | – | – | – | – | – | –
12 | EKVX | 0.958 | 0.833 | 0.841 | 1.02 | 0.83 | 0.245 | 0.196 | 0.218 | 0.217 | 0.22 | 0.3 | 0.272 | 0.324 | 0.405 | 0.344 | 0.325 | 0.388 | 0.362 | 0.292
13 | EMC-BAC-2 | 0.763 | 0.63 | 0.717 | 0.774 | 0.726 | 0.516 | 0.401 | 0.536 | 0.497 | 0.508 | 0.813 | 0.735 | 0.758 | 0.293 | 0.284 | 0.28 | 0.402 | 0.401 | 0.416
14 | EPLC-272H | 0.927 | 0.79 | 0.909 | 0.829 | 0.972 | 0.312 | 0.399 | 0.308 | 0.25 | 0.317 | 0.274 | 0.289 | 0.269 | 0.366 | 0.379 | 0.312 | 0.361 | 0.41 | 0.376
15 | H3255 | 0.576 | 0.59 | 0.632 | 0.628 | 0.6 | 0.392 | 0.326 | 0.315 | 0.32 | 0.332 | 0.623 | 0.565 | 0.649 | 0.629 | 0.663 | 0.66 | 0.602 | 0.526 | 0.502
16 | HARA | 1.05 | 0.754 | 0.953 | 0.973 | 0.795 | 0.471 | 0.357 | 0.504 | 0.429 | 0.466 | 0.561 | – | 0.634 | 0.0946 | 0.0891 | 0.102 | 0.254 | – | 0.269
17 | HCC-15 | 1.03 | 0.815 | 0.869 | 0.887 | 0.855 | 0.519 | 0.333 | 0.459 | 0.464 | 0.423 | 0.37 | 0.302 | 0.291 | 0.498 | 0.341 | 0.322 | 0.213 | 0.23 | 0.243
18 | HCC-44 | 0.853 | 0.836 | 0.817 | 1.03 | 0.832 | 0.226 | 0.21 | 0.163 | 0.185 | 0.196 | 1.01 | 0.925 | 0.918 | – | 0.862 | 0.894 | 0.635 | 0.627 | 0.702
19 | HCC-78 | 0.326 | 0.279 | 0.359 | 0.376 | 0.339 | 0.705 | 0.586 | 0.642 | 0.723 | 0.696 | 0.666 | 0.575 | 0.689 | 0.691 | 0.375 | 0.433 | 1.01 | 0.915 | 0.967
